In article PMC5732773, “Metabolism, pharmacokinetics, and bioavailability of ZB716, a Steroidal Selective Estrogen Receptor Downregulator (SERD)” (Oncotarget, 2017):
Read-outs that look alike come from different tables or passages of the source.

How the values were obtained:
[1] = set-up: method as in PMID 27529700, PMID 29467940; settings: cited from earlier work
[2] = Sulfation in rat liver cytosol with PAPS
Protocol: Sulfate conjugation is enabled by sulfotransferases in the presence of the cofactor 3'-phosphoadenosine-5'-phosphosulfate (PAPS).
The pre-incubation solution was prepared by adding 13.5 μL 1 M pH=7.5 Tris-HCl buffer, 247.5 μL water, 6 μL 1 mM 3'-Phosphoadenosine-5'-phosphosulfate (PAPS) from R&D Systems, 30 μL (10 mg/mL) cytosolic protein from Corning Gentest into a 1.5 mL microcentrifuge. The mixtures were incubated at 37°C for 5 min in an incubator. Then 3 μL of 10 mM ZB716 was added, mixed, and incubated at 37°C for 60 min in the incubator. After incubation, 300 μL MeOH was added to terminate the reaction. The final mixture was then -centrifuged at 10,000×g for 4 min at 4 °C. The supernatant was analyzed by the UHPLC-Q-Exactive instrument.
The Q-Exactive mass spectrometer was coupled to a UHPLC ultimate 3000 (Dionex) using a C-18 column (1.8 μm, 2.1 mm x 50 mm). The gradient started from 30% mobile phase B (acetonitrile with 0.05% formic acid) for 1 min, increased to 100% B in 4.5 min, held for 5 min, then decreased back to 30% B and held for 5 min. Mobile phase A was water with 0.05% formic acid. The flow rate was controlled at 0.3 mL/min. PRM mode was used to obtain the fragment patterns for metabolites with the setting of MS2 resolution of 17500, AGC target of 1e5, maximum IJ of 100 ms, NCE setting of 35. […]

[3] = ZB716 and metabolites in rat feces after oral dosing; settings: for share measured in feces after 72 hours: oral ZB716, after 72 h
Protocol: (§1) Female Sprague-Dawley rats, weighing between 350 and 400 g (Charles River Laboratories, Portage, MI), were used for this study on ZB716. Oral gavages containing ZB716 were formulated in 5% dimethyl sulfoxide (DMSO), 40% polyethylene glycol 400, and 55% saline. Rats were housed in metabolic cages for collection of urine and feces samples after oral administration of ZB716 at a dose of 5 or 10 mg/kg. […] Urine and feces were collected for the durations of 0-1h, 1-3h, 3-6h, 6-8h, 8-24h, 24-48h, 48-72h, 72-96h, and 96-120 h after drug administration.
The internal standard of trans-tamoxifen-13C2,15N (0.5 ng/μL in methanol) was added to the feces samples at 10 ng/g feces based on the weight of the feces collected. Feces samples were homogenized with a Power Gen 125 homogenizer (Fisher Scientific) in the mixture of chloroform/methanol (2:1, v:v) and stored at -20 °C overnight. After sonicating for 30 min, the samples were centrifuged with a Heraeus Megafuge16R centrifuge at 3000 RPM. The supernatant was dried with nitrogen gas at room temperature and resuspended with corresponding amount of methanol (200 μL methanol/g feces) for injection on the UHPLC-Q-Exactive instrument.
(§2) The Q-Exactive mass spectrometer was coupled to a UHPLC ultimate 3000 (Dionex) using a C-18 column (1.8 μm, 2.1 mm x 50 mm). The gradient started from 30% mobile phase B (acetonitrile with 0.05% formic acid) for 1 min, increased to 100% B in 4.5 min, held for 5 min, then decreased back to 30% B and held for 5 min. Mobile phase A was water with 0.05% formic acid. The flow rate was controlled at 0.3 mL/min. PRM mode was used to obtain the fragment patterns for metabolites with the setting of MS2 resolution of 17500, AGC target of 1e5, maximum IJ of 100 ms, NCE setting of 35. The heated ESI probe setting was set as sheath gas at 30 psi, auxiliary gas at 8 psi, spray voltage at 2500V, capillary temperature at 280°C, S-lens RF level at 50, and auxiliary gas heater temperature at 300°C.
Concentrated stock solutions of ZB716 and fulvestrant were prepared at 1 mM in methanol. The stock solution of the internal standard (trans-tamoxifen-13C2,15N) was prepared at 1000 ng/μL in methanol.

[4] = ZB716 and metabolites in rat urine after oral dosing; settings: for share in urine accounted for in urinary excretion 72 hours after oral dosage: oral ZB716, after 72 h
Description: Urine samples were subjected to the same HPLC-MS/MS analysis to identify ZB716 and any possible metabolites over a time course post oral administration. […] Again, quantitation was only possible with ZB716 and fulvestrant for which standard calibration curves were established.
as §1
Urine samples were thawed at room temperature and vortaxed. 200 μL of the sample was transferred to a 1.5 mL Eppendorf microcentrifuge tube followed by adding 10 μL of the 0.5 ng/μL trans-tamoxifen-13C2,15N in methanol solution and 200 μL methanol. After Vortaxing and centrifuging, the sample was injected into the UHPLC-Q-Exactive instrument for analysis.
as §2
(§3) Concentrated stock solutions of ZB716 and fulvestrant were prepared at 1 mM in methanol. The stock solution of the internal standard (trans-tamoxifen-13C2,15N) was prepared at 1000 ng/μL in methanol. The above stock solutions were kept at -20°C until use. The working solutions of ZB716 and fulvestrant were prepared at 100 μM in methanol. The working solution of the internal standard trans-tamoxifen-13C2, 15N was prepared at 5 ng/μL and 0.5 ng/ μL in methanol, respectively. Working solutions at various concentrations were prepared by diluting their corresponding stock solution with methanol. Calibration standards quality control solutions were prepared over a range of five orders of magnitude.

[5] = Oxidative metabolism of ZB716 in rat liver microsomes with NADPH; settings: ZB716 with rat liver microsome and NADPH, 1 hour
Protocol: By incubating ZB716 with rat liver microsome in the presence of NADPH for 1 hour, the cytochrome P450 enzymes in the microsomes were allowed to oxidize ZB716 under aerobic conditions.
NADPH solution A contains NADP+ and Glucose 6-phosphate. NADPH solution B contains Glucose-6-phosphate dehydrogenase, which is necessary for NADPH regeneration. The pre-incubation solution was prepared by adding 30 μL of potassium phosphate buffer (pH 7.4; 10x), 241.5 μL water, 15μL of NADPH solution A, 3 μL of NADPH solution B, and 7.5 μL rat liver microsomes from Corning Gentest into a 1.5 mL microcentrifuge tube. The mixtures were incubated at 37°C for 5 min in an incubator. Then 3 μL of 10 mM ZB716 was added, mixed, and incubated at 37°C for 60 min in the incubator. After incubation, 300 μL MeOH was added to terminate the reaction. The final mixture was then centrifuged at 10,000×g for 4 min at 4°C. The supernatant was analyzed by UHPLC-HRMS (Thermo Q-Exactive).
The Q-Exactive mass spectrometer was coupled to a UHPLC ultimate 3000 (Dionex) using a C-18 column (1.8 μm, 2.1 mm x 50 mm). The gradient started from 30% mobile phase B (acetonitrile with 0.05% formic acid) for 1 min, increased to 100% B in 4.5 min, held for 5 min, then decreased back to 30% B and held for 5 min. Mobile phase A was water with 0.05% formic acid. The flow rate was controlled at 0.3 mL/min. […]

[6] = Metabolism and pharmacokinetics of ZB716 in rat plasma after oral dosing
Protocol: The same PRM approach was used to identify the metabolites of ZB716 in rat plasma collected at various time points after a single oral dose of 10 mg/kg. […] The pharmacokinetics parameters were calculated using a noncompartment extravascular model (Table 3).
Female Sprague-Dawley rats, weighing between 350 and 400 g (Charles River Laboratories, Portage, MI), were used for this study on ZB716. Oral gavages containing ZB716 were formulated in 5% dimethyl sulfoxide (DMSO), 40% polyethylene glycol 400, and 55% saline. Rats were housed in metabolic cages for collection of urine and feces samples after oral administration of ZB716 at a dose of 5 or 10 mg/kg. […] Urine and feces were collected for the durations of 0-1h, 1-3h, 3-6h, 6-8h, 8-24h, 24-48h, 48-72h, 72-96h, and 96-120 h after drug administration. Blood samples were collected from the lateral tail vein of the rats at 5 min, 15 min, 30 min, 1 h, 3 h, 6 h, 8 h, 24 h, and 48 h time points after drug administration. Rat blood was collected with a capillary into 1.5 mL microcentrifuge tubes containing 0.01 mL of 10 % EDTA anticoagulant. Plasma was then separated from cell pellets by centrifugation in a refrigerated centrifuge at 4 °C and transferred to a separate tube. Plasma samples were frozen at -80 °C until analysis.
Plasma samples (100 μL) were extracted using a modified Folch method for lipid extraction. Internal standard (10 μL 0.5 ng/μL trans-tamoxifen-13C2,15N in methanol), methanol (0.5 mL) and chloroform (1 mL) were added to each plasma sample. The mixtures were stored at −20 °C overnight. Samples were sonicated for 10 min and then centrifuged with a Thermo Scientific Heraeus Megafuge16 centrifuge. The top liquid layer was transferred to another test tube. The bottom residual layer was washed with 0.5 mL of chloroform/methanol (2:1), centrifuged, and the top layer was transferred and combined with the previous top layer. The mixture was dried out with nitrogen at room-temperature and re-suspended in 100 μL of HPLC grade methanol for injection.
as §2, §3

[7] = test system: UGT1A1, -1A3, -1A4, and -1A8; settings: predominant site 3-hydroxyl; cited from earlier work
[8] = set-up: method as in PMID 12490735; settings: second line therapy in the metastatic setting; cited from earlier work
[9] = Glucuronidation in liver microsomes with UGT reaction mix (UDPGA); settings: fulvestrant incubated with liver microsomes and UDPGA
Protocol: The pre-incubation solution was prepared by adding 205.5 μL water, 24 μL of UGT Reaction Mix solution A, 60μL of UGT Reaction Mix solution B, 7.5 μL rat liver microsomes from Corning Gentest into a 1.5 mL microcentrifuge. The mixtures were incubated at 37°C for 5 min in an incubator. Then 3 μL of 10mM ZB716 was added, mixed, and incubated at 37°C for 60 min in the incubator. After incubation, 300 μL MeOH was added to terminate the reaction. The final mixture was then centrifuged at 10,000× g for 4 min at 4 °C. The supernatant was analyzed by the UHPLC-Q-Exactive instrument.
as §2

[10] = female, Sprague-Dawley, rat, plasma, po, 10 mg/kg

C[C@]12CC[C@@H]3c4ccc(B(O)O)cc4C[C@@H](CCCCCCCCC[S+]([O-])CCCC(F)(F)C(F)(F)F)[C@H]3[C@@H]1CC[C@@H]2O (stereo partly drawn) [ZB716]
peak plasma concentration ([1]; mice and rats, oral administration at 10 mg/kg): > 100 ng/mL | number of sulfate conjugation products observed ([2]; ZB716 with rat liver cytosol and PAPS): three | share measured in feces after 72 hours ([3]; rat): Less than 1% | share of total ZB716 present in feces excreted in 24 hours ([3]; rat, oral, 0-24 h): 80.7% | share of ZB716 in feces excreted between 24 h to 72 h ([3]; rat, oral, 24-72 h): 10.2% | share in urine accounted for in urinary excretion 72 hours after oral dosage ([4]; rat): less than 1% | share of ZB716 in urine excreted between 24 h to 72 h ([4]; rat, oral, 24-72 h): 34.4% | share of ZB716 in urine excreted before 24 h ([4]; rat, oral, before 24 h): about 63.7% | number of direct or indirect oxidative metabolites identified [5]: eight | AUC(0-t) [6, 10]: 1300 ng·h/mL | MRT inf [6, 10]: 18.4 h | Tmax [6, 10]: 2 h | concentration at 1 h [6, 10]: 130 ng/mL | concentration at 4 h [6, 10]: 87.1 ng/mL | concentration at 8 h [6, 10]: 26.4 ng/mL | concentration at 48 h [6, 10]: 6.91 ng/mL | k el [6, 10]: 1.11e-05 s⁻¹ | share of ZB716 metabolized to fulvestrant ([6]; in vivo, observed in mice (ref 27-28) and again in rats in this study): 10-30% | AUC 0-inf_obs ([6]; rat, oral 10 mg/kg): 1451.82 ng·h/mL | Cmax ([6]; rat, oral 10 mg/kg): 158.12 ng/mL | Vz/Fobs (apparent volume of distribution during terminal phase) ([6]; rat, oral 10 mg/kg): 13.97 (mg/kg)/(ng/mL) | t1/2 ([6]; rat, oral 10 mg/kg, noncompartment extravascular model): 17.03 h | loss of plasma concentration from 2 h to 4 h ([6]; rat, single oral dose 10 mg/kg, within 2 hours after peak): 44.9%

CC12CCC3c4ccc(O)cc4CC(CCCCCCCCC[S+]([O-])CCCC(F)(F)C(F)(F)F)C3C1CCC2OC1OC(C(=O)O)C(O)C(O)C1O (stereo not drawn) [FU-17-glucuronide]
share of fulvestrant glucuronidation products [7]: 5-10%

C[C@]12CC[C@@H]3c4ccc(O)cc4C[C@@H](CCCCCCCCC[S+]([O-])CCCC(F)(F)C(F)(F)F)[C@H]3[C@@H]1CC[C@@H]2O (stereo partly drawn) [Fulvestrant, reference compound]
peak plasma concentration ([1]; animals, similar dosage via s.c. injection): 20 ng/mL | clinical response rate [8]: below 20% | site of sulfation ([2]; fulvestrant incubated with rat liver cytosol): predominantly at 3-position | detected in rat feces ([3]; rat feces after single oral dose of ZB716, + detected, - not detected): detected | share measured in feces after 72 hours ([3]; rat): Less than 1% | fulvestrant excreted in feces before 72 h ([3]; rat, oral ZB716, metabolite fulvestrant, before 72 h): 69.2% | detected in rat urine ([4]; rat urine after oral administration of ZB716, + detected, - not detected): detected | share in urine accounted for in urinary excretion 72 hours after oral dosage ([4]; rat): less than 1% | share of all fulvestrant found in urine excreted in the first 48 hours ([4]; rat, oral ZB716, metabolite fulvestrant, first 48 h): 97.6% | oxidative metabolite of ZB716 identified in incubation mixture [5]: identified | site of glucuronidation [9]: primarily at 3-OH | detected in rat plasma ([6]; rat plasma after single oral dose of ZB716 10 mg/kg, + detected, - not detected): identified
